Laboratory results taken from patent publication US9834542B2, “LXR modulators” (BRISTOL-MYERS SQUIBB COMPANY, priority 2013, dated 2017).

Target: T1, LXRβ (Homo sapiens, UniProt P55055)
T1 construct: Co-transfection expression plasmids, comprising full-length LXRα (pCMX-h LXRα[…] or LXRβ (pCMX-hLXRβ)); expressed in transfected cells; host or cells: CV-1 African Green Monkey Kidney Cells
T1 sequence (P55055 1-460): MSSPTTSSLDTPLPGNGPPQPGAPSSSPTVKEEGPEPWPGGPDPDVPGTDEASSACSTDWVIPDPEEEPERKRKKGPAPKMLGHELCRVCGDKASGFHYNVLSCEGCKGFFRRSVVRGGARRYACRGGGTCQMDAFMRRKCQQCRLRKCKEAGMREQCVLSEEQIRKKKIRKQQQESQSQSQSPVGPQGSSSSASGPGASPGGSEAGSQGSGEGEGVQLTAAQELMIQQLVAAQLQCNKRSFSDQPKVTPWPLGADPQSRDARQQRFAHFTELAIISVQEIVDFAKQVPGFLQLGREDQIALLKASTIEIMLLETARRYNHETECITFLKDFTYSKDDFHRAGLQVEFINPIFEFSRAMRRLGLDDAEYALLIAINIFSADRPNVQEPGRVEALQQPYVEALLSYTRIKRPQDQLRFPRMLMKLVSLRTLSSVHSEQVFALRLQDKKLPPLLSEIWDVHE
T1 sequence (P19793 1-462 partner): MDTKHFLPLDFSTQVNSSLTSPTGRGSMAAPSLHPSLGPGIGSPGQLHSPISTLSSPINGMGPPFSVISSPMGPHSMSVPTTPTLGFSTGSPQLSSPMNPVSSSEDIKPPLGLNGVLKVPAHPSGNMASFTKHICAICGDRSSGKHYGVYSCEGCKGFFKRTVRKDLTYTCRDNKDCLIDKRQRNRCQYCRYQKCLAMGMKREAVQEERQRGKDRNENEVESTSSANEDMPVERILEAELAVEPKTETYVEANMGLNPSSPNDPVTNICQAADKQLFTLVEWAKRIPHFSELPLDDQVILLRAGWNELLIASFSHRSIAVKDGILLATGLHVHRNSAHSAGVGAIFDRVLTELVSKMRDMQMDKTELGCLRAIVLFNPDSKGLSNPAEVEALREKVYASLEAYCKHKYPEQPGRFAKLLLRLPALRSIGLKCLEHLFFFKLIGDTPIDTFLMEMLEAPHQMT
Test: Co-transfection assay (LXRE luciferase reporter), LXRβ
Type: cell-based
Conditions: for EC50: CV-1 cells transfected with pCMX-hLXRβ and LXREx1-Tk-Luciferase, 20 hours incubation; for Emax: LXRβ co-transfection, relative to high control 1-(2,4-difluorobenzyl)-2-oxo-6-(4-phenoxyphenyl)-4-(trifluoromethyl)-1,2-dihydropyridine-3-carbonitrile, read-out: % Efficacy
Outline: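 CV-1 cells transiently co-transfected with full-length human LXRβ expression plasmid, LXREx1-Tk-luciferase reporter and β-galactosidase control, then exposed to compound for 20 h at 37 °C. Luciferase luminescence read; EC50 from 11-point, ½-log dose–response fit, efficacy relative to high-control agonist maximum.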

EC50 [nM]	Emax [%]	Structure (SMILES)
50	72	Cc1nc(-c2cc(-c3cc(F)c(CO)c(S(C)(=O)=O)c3)ccc2-n2cc(C(F)(F)F)nc2C)c(-c2ccc(Cl)cc2)o1 [Example 374, {3′-[5-(4-chlorophenyl)-2-methyl-1,3-oxazol-4-yl]-3-fluoro-5-(methylsulfonyl)-4′-[2-methyl-4-(trifluoromethyl)-1H-imidazol-1-yl]biphenyl-4-yl}methanol]
103	84	Cc1nc(-c2cc(-c3cccc(S(C)(=O)=O)c3)ccc2-n2cc(C(F)(F)F)nc2C)c(-c2ccc(Cl)cc2)o1 [Example 375, 5-(4-chlorophenyl)-2-methyl-4-{3′-(methylsulfonyl)-4-[2-methyl-4-(trifluoromethyl)-1H-imidazol-1-yl]biphenyl-3-yl}-1,3-oxazole]
64	84	Cc1nc(-c2cc(-c3cccc(S(C)(=O)=O)c3)ccc2-n2cc(C(F)(F)F)nc2C)c(-c2ccc(OC(F)F)c(F)c2)o1 [Example 376, 5-(4-(difluoromethoxy)-3-fluorophenyl)-2-methyl-4-(4-(2-methyl-4-(trifluoromethyl)-1H-imidazol-1-yl)-3′-(methylsulfonyl)biphenyl-3-yl)oxazole]
48	77	Cc1nc(-c2cc(-c3cc(F)c(CO)c(S(C)(=O)=O)c3)ccc2-n2cc(C(F)(F)F)nc2C)c(-c2ccc(OC(F)F)c(F)c2)o1 [Example 377]
49	24	Cc1nc(-c2cc(-c3cc(F)c(CO)c(S(C)(=O)=O)c3)ccc2-n2cc(C(F)(F)F)nc2C)c(-c2cccn(C(C)C)c2=O)o1 [Example 378, 3-(4-(3′-fluoro-4′-(hydroxymethyl)-4-(2-methyl-4-(trifluoromethyl)-1H-imidazol-1-yl)-5′-(methylsulfonyl)biphenyl-3-yl)-2-methyloxazol-5-yl)-1-isopropylpyridin-2(1H)-one]
825	21	Cc1nc(-c2cc(-c3cccc(S(C)(=O)=O)c3)ccc2-n2cc(C(F)(F)F)nc2C)c(-c2cccn(C(C)C)c2=O)o1 [Example 379, 1-isopropyl-3-(2-methyl-4-(4-(2-methyl-4-(trifluoromethyl)-1H-imidazol-1-yl)-3′-(methylsulfonyl)biphenyl-3-yl)oxazol-5-yl)pyridin-2(1H)-one]
53	91	COc1cc(-c2oc(C)nc2-c2cc(-c3cccc(S(C)(=O)=O)c3)ccc2-n2cc(C(F)(F)F)nc2C)ccc1OC(F)F [Example 380, 5-(4-(difluoromethoxy)-3-methoxyphenyl)-2-methyl-4-(4-(2-methyl-4-(trifluoromethyl)-1H-imidazol-1-yl)-3′-(methylsulfonyl)biphenyl-3-yl)oxazole]
18	81	COc1cc(-c2oc(C)nc2-c2cc(-c3cc(F)c(CO)c(S(C)(=O)=O)c3)ccc2-n2cc(C(F)(F)F)nc2C)ccc1OC(F)F [Example 381, (3′-(5-(4-(difluoromethoxy)-3-methoxyphenyl)-2-methyloxazol-4-yl)-3-fluoro-4′-(2-methyl-4-(trifluoromethyl)-1H-imidazol-1-yl)-5-(methylsulfonyl)biphenyl-4-yl)methanol]
57	62	Cc1nc(-c2cc(-c3cccc(S(C)(=O)=O)c3)ccc2-n2cc(C(F)(F)F)nc2C)c(-c2ccc(OC(F)F)c(OCC3CC3)c2)o1 [Example 382, 5-(3-(cyclopropylmethoxy)-4-(difluoromethoxy)phenyl)-2-methyl-4-(4-(2-methyl-4-(trifluoromethyl)-1H-imidazol-1-yl)-3′-(methylsulfonyl)biphenyl-3-yl)oxazole]
23	67	Cc1nc(-c2cc(-c3cc(F)c(CO)c(S(C)(=O)=O)c3)ccc2-n2cc(C(F)(F)F)nc2C)c(-c2ccc(OC(F)F)c(OCC3CC3)c2)o1 [Example 383]
12	72	Cc1nc(-c2cc(-c3cccc(S(C)(=O)=O)c3)ccc2-n2cc(C(F)(F)F)nc2C)c(-c2ccc(OC(F)F)nc2)o1 [Example 384, 5-(6-(difluoromethoxy)pyridin-3-yl)-2-methyl-4-(4-(2-methyl-4-(trifluoromethyl)-1H-imidazol-1-yl)-3′-(methylsulfonyl)biphenyl-3-yl)oxazole]
15	79	Cc1nc(-c2cc(-c3cc(F)c(CO)c(S(C)(=O)=O)c3)ccc2-n2cc(C(F)(F)F)nc2C)c(-c2ccc(OC(F)F)nc2)o1 [Example 385, (3′-(5-(6-(difluoromethoxy)pyridin-3-yl)-2-methyloxazol-4-yl)-3-fluoro-4′-(2-methyl-4-(trifluoromethyl)-1H-imidazol-1-yl)-5-(methylsulfonyl)biphenyl-4-yl)methanol]
73	64	Cc1nc(-c2cc(-c3cccc(S(C)(=O)=O)c3)ccc2-n2cc(C(F)(F)F)nc2C)c(-c2ccc(OC(F)F)c(OC3CC3)c2)o1 [Example 386, 5-(3-cyclopropoxy-4-(difluoromethoxy)phenyl)-2-methyl-4-(4-(2-methyl-4-(trifluoromethyl)-1H-imidazol-1-yl)-3′-(methylsulfonyl)biphenyl-3-yl)oxazole]
19	73	Cc1nc(-c2cc(-c3cc(F)c(CO)c(S(C)(=O)=O)c3)ccc2-n2cc(C(F)(F)F)nc2C)c(-c2ccc(OC(F)F)c(OC3CC3)c2)o1 [Example 387, (3′-(5-(3-cyclopropoxy-4-(difluoromethoxy)phenyl)-2-methyloxazol-4-yl)-3-fluoro-4′-(2-methyl-4-(trifluoromethyl)-1H-imidazol-1-yl)-5-(methylsulfonyl)biphenyl-4-yl)methanol]
1380	32	Cc1nc(-c2cc(-c3cccc(S(C)(=O)=O)c3)ccc2-n2cc(C(F)(F)F)nc2C)c(-c2cccnc2OC(F)F)o1 [Example 388, 5-(2-(difluoromethoxy)pyridin-3-yl)-2-methyl-4-(4-(2-methyl-4-(trifluoromethyl)-1H-imidazol-1-yl)-3′-(methylsulfonyl)biphenyl-3-yl)oxazole]
239	39	Cc1nc(-c2cc(-c3cc(F)c(CO)c(S(C)(=O)=O)c3)ccc2-n2cc(C(F)(F)F)nc2C)c(-c2cccnc2OC(F)F)o1 [Example 389, (3′-(5-(2-(difluoromethoxy)pyridin-3-yl)-2-methyloxazol-4-yl)-3-fluoro-4′-(2-methyl-4-(trifluoromethyl)-1H-imidazol-1-yl)-5-(methylsulfonyl)biphenyl-4-yl)methanol]
2080	62	Cc1nc(-c2cc(-c3cccc(S(C)(=O)=O)c3)ccc2-n2cc(C(F)(F)F)nc2C)c(-c2cccnc2C2CC2)o1 [Example 390, 5-(2-cyclopropylpyridin-3-yl)-2-methyl-4-(4-(2-methyl-4-(trifluoromethyl)-1H-imidazol-1-yl)-3′-(methylsulfonyl)biphenyl-3-yl)oxazole]
207	51	Cc1nc(-c2cc(-c3cc(F)c(CO)c(S(C)(=O)=O)c3)ccc2-n2cc(C(F)(F)F)nc2C)c(-c2cccnc2C2CC2)o1 [Example 391]
187	53	Cc1nc(-c2cc(-c3cccc(S(C)(=O)=O)c3)ccc2-n2cc(C(F)(F)F)nc2C)c(-c2ccc(OC(F)F)c(OC(F)F)c2)o1 [Example 392, 5-(3,4-bis(difluoromethoxy)ohenyl)-2-methyl-4-(4-(2-methyl-4-(trifluoromethyl)-1H-imidazol-1-yl)-3′-(methylsulfonyl)biphenyl-3-yl)oxazole]
64	56	Cc1nc(-c2cc(-c3cc(F)c(CO)c(S(C)(=O)=O)c3)ccc2-n2cc(C(F)(F)F)nc2C)c(-c2ccc(OC(F)F)c(OC(F)F)c2)o1 [Example 393, (3′-(5-(3,4-bis(difluoromethoxy)phenyl)-2-methyloxazol-4-yl)-3-fluoro-4′-(2-methyl-4-(trifluoromethyl)-1H-imidazol-1-yl)-5-(methylsulfonyl)biphenyl-4-yl)methanol]
615	60	Cc1nc(-c2cc(-c3cccc(S(C)(=O)=O)c3)ccc2-n2cc(C(F)(F)F)nc2C)c(-c2cccnc2C)o1 [Example 394, 2-methyl-4-(4-(2-methyl-4-(trifluoromethyl)-1H-imidazol-1-yl)-3′-(methylsulfonyl)biphenyl-3-yl)-5-(2-methylpyridin-3-yl)oxazole]
